Test results: ChEMBL document CHEMBL5096159, “Annual review of LSD1/KDM1A inhibitors in 2020” (Eur J Med Chem, 2021)

Tests used:
[1] = target: T1, Lysine-specific histone demethylase 1A (Homo sapiens, UniProt O60341); test: Inhibition of LSD1 (unknown origin) by Spectra Max Paradigm Microplate Reader analysis
[2] = test system: MDA-MB-231; test: Antiproliferative activity against human MDA-MB-231 cells assessed as reduction in cell viability after 24 hrs by MTT assay; type: functional, cell-based; conditions: MDA-MB-231, 24 h
[3] = target: T1, Lysine-specific histone demethylase 1A; test: Inhibition of recombinant LSD1 (unknown origin) expressed in Escherichia coli BL21 using H3K4me2 as substrate preincubated for 10 mins followed by substrate addition and measured after 30 mins by fluorescence based analysis
[4] = target: T1, Lysine-specific histone demethylase 1A; test: Inhibition of recombinant LSD1 (unknown origin) using H3K4me2 as a substrate measured after 0.5 hrs by fluorescence based analysis
[5] = test system: MGC-803; test: Antiproliferative activity against human MGC-803 cells assessed as reduction in cell viability after 72 hrs by MTT assay; type: functional, cell-based; conditions: MGC-803, 72 h
[6] = Cytotoxicity against human GES1 cells assessed as cell viability measured after 72 hrs by MTT assay; type: toxicity, cell-based
[7] = test system: BGC-823; test: Antiproliferative activity against human BGC-823 cells assessed as reduction in cell viability incubated for 5 days by MTS assay; type: functional, cell-based; conditions: BGC-823, 120 h

Row | SMILES | IC50 [1] [µM] | IC50 [3] [µM] | further results
1 | COc1ccc2cc3[n+](cc2c1OC)CCc1cc2c(cc1-3)OCO2 [BERBERINE] |  | 6.97 | 
2 | COc1ccc(-c2coc3cc(O)cc(O)c3c2=O)cc1 [BIOCHANIN] |  |  | IC50 [4]: 2.95 µM; IC50 [5]: 6.77 µM; IC50 at 72 h [6]: > 32 µM
3 | COc1cc(CNC(=O)CCCC/C=C/C(C)C)ccc1O [CAPSAICIN] |  |  | IC50 [7]: 4.66 µM
4 | COc1cc2c(cc1O)-c1cc3ccc(OC)c(OC)c3c[n+]1CC2 [COLUMBAMINE] |  | 0.47 | 
5 | C[C@H]1COC2=C1C(=O)C(=O)c1c2ccc2c1CCCC2(C)C [CRYPTOTANSHINONE] | 9.02 |  | 
6 | Cc1cccc2c3c(ccc12)C1=C(C(=O)C3=O)[C@@H](C)CO1 [DIHYDROTANSHINONE I] | 15.8 |  | 
7 | COc1cc2c(cc1O)CC[n+]1cc3c(OC)c(OC)ccc3cc1-2 [JATRORRHIZINE] |  | 1.55 | 
8 | COc1cc2c(cc1OC)-c1cc3ccc(OC)c(OC)c3c[n+]1CC2 [PALMITINE] |  | 12.2 | 
9 | Cc1coc2c1C(=O)C(=O)c1c-2ccc2c(C)cccc12 [TANSHINONE I] | 16.4 |  | 

More lines, main results first:

Row | IC50 [1] [µM] | SMILES | IC50 [3] [µM] | further results
10 | 0.11 | O=C(/C=C/c1ccc(O)c2c1[C@H](C(=O)O[C@H](Cc1ccc(O)c(O)c1)C(=O)O)[C@@H](c1ccc(O)c(O)c1)O2)O[C@H](Cc1ccc(O)c(O)c1)C(=O)O |  | IC50 [2]: 55 µM
11 | 20.9 | O=C(/C=C/c1ccc(O)c(O)c1)O[C@H](Cc1ccc(O)c(O)c1)C(=O)O [ROSMARINIC ACID] |  | 
